Assay results: patent publication US9624199B2, “Substituted bipiperidinyl derivatives” (Bayer Pharma Aktiengesellschaft, priority 2013, dated 2017)
pIC50: −log10 of the molar value. Where a name gives a salt, the structure may show the parent alone.

Columns and labels:
[1] = biological target: recombinant human α2C receptor CHO cell line (Homo sapiens (Human), UniProt P18825); assay: Antagonism against adrenoreceptor α2C (luminescence, noradrenaline-stimulated recombinant CHO cells); format: cell-based; settings: 20 nM noradrenaline, tested up to 10 μM
Chain of recombinant human α2C receptor CHO cell line (P18825 whole entry): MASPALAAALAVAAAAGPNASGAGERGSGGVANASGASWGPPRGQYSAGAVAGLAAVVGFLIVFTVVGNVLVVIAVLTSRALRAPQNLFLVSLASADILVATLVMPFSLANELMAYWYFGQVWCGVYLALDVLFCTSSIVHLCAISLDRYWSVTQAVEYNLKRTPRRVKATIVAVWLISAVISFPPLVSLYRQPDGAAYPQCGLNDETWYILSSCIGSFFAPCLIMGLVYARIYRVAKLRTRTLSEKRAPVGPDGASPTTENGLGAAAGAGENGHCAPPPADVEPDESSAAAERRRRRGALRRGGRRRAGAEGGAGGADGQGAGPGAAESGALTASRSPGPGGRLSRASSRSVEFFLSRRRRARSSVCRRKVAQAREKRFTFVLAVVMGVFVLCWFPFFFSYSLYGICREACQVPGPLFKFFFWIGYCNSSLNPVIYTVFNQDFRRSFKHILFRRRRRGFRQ
Procedure: B-1a) Antagonism Against Adrenoreceptors
Antagonism against the adrenoreceptor α1A was tested using a recombinant human α1A receptor CHO cell line which additionally also recombinantly expresses mtAeq (mitochondrial aequorin). Antagonism against the adrenoreceptor α2A was tested using a recombinant human α2A-Gα16 receptor fusion protein CHO cell line (PerkinElmer Life Sciences) which additionally also recombinantly expresses mtAeq. Antagonism against the adrenoreceptor α2B was tested using a recombinant human α2B receptor CHO cell line (PerkinElmer Life Sciences) which additionally also recombinantly expresses mtAeq. Antagonism against the adrenoreceptor α2C was tested using a recombinant human α2C receptor CHO cell line which additionally also recombinantly expresses a chimeric G protein (Gαqi3) and mtOb (mitochondrial obelin).
The cells were cultivated at 37° C. and 5% CO2 in Dulbecco's modified Eagle's Medium/NUT mix F12 with L-glutamine which additionally contained 10% (v/v) inactivated foetal calf serum, 1 mM sodium pyruvate, 0.9 mM sodium bicarbonate, 50 U/ml penicillin, 50 μg/ml streptomycin, 2.5 μg/ml amphotericin B and 1 mg/ml Geneticin. The cells were passaged with enzyme-free Hank's-based cell dissociation buffer. All cell culture reagents used were from Invitrogen (Carlsbad, USA).
Luminescence measurements were carried out on white 384-well microtitre plates. 2000 cells/well were plated in a volume of 25 μl and cultivated for one day at 30° C. and 5% CO2 in cell culture medium with coelenterazine (α2A and α2B: 5 μg/ml; α1a/c and α2C: 2.5 μg/ml). Serial dilutions of the test substances (10 μl) were added to the cells. After 5 minutes, noradrenaline was added to the cells (35 μl; final concentrations: 20 nM (α1a/c and α2C) or 200 nM (α2A and α2B)), and the emitted light was measured for 50 seconds using a CCD (charge-coupled device) camera (Hamamatsu Corporation, Shizuoka, Japan) in a light-tight box. The test substances were tested up to a maximum concentration of 10 μM. The IC50 values were calculated from the appropriate dose-response curves.

[2] = test system: diabetic (ZDFfa/fa) and healthy rats (Wistar); assay: Assay of perfusion-enhancing substances (microcirculation), laser doppler probe at the paw; format: in vivo, rat; settings: single oral dose; for factor by which microcirculation is improved at MED compared to placebo: at the MED, 30 min after administration; for MED skin temperature: minimum effective dose for significant increase of skin temperature (ttest); for MED microcirculation: minimum effective dose with significantly improved microcirculation vs placebo, measured 30 min after administration
Excerpt: B-2e) Assay of Perfusion-Enhancing Substances (Microcirculation)
In diabetic (ZDFfa/fa) and healthy rats (Wistar), a laser doppler probe was fastened under anaesthesia conditions (isoflurane anaesthesia) at the sole of the paw for measuring cutaneous microcirculation. The test animals were once treated orally with the test substances. During the experiment, microperfusion and temperature of the lower extremities were documented continuously. Here, a temperature-sensitive laser doppler probe (Periflux, 02C) was fastened with adhesive to the paws of the animals, allowing the measurement of microperfusion and skin temperature. The microcirculation measurement values were measured on both paws 30 min after oral administration of the test substance. […] Also stated is the MED for the significant increase of skin temperature (ttest).
Microcirculation data for adrenoreceptor α2C receptor antagonist of the compound of Example 11 and for comparative substance ORM12741, an AR α2C receptor antagonist from Orion, are shown in Table 2: […]

Compound	pIC50 [1]	also measured
C[C@@H]1CCCN(C2CCN(C(=O)c3ccc(N4CCOCC4)nc3)CC2)C1 [Example 1, [(3R)-3-Methyl-1,4′-bipiperidin-1′-yl][6-(morpholin-4-yl)pyridin-3-yl]methanone formic acid salt]	–	pIC50 ([1]; formic acid salt): 7.55
C[C@@H]1CCCN(C2CCN(C(=O)c3cnc(N4CCOCC4)nc3)CC2)C1 [Example 16, [(3R)-3-Methyl-1,4′-bipiperidin-1′-yl][2-(morpholin-4-yl)pyrimidin-5-yl]methanone]	7.27	–
COCCNc1ccc(C(=O)N2CCC(N3CCC[C@@H](C)C3)CC2)cn1 [Example 4, {6-[(2-Methoxyethyl)amino]pyridin-3-yl}[(3R)-3-methyl-1,4′-bipiperidin-1′-yl]methanone]	7.44	–
C[C@@H]1CCCN(C2CCN(C(=O)c3ccc(N4CCOCC4)nc3)CC2)C1 [Example 2, [(3R)-3-Methyl-1,4′-bipiperidin-1′-yl][6-(morpholin-4-yl)pyridin-3-yl]methanone]	7.30	–
COCCN(C)c1ccc(C(=O)N2CCC(N3CCC[C@@H](C)C3)CC2)cn1 [Example 6, {6-[(2-Methoxyethyl)(methyl)amino]pyridin-3-yl}[(3R)-3-methyl-1,4′-bipiperidin-1′-yl]methanone hydrochloride]	7.48	–
C[C@@H]1CCCN(C2CCN(C(=O)c3cnc(N4CCS(=O)(=O)CC4)cn3)CC2)C1 [Example 21, [5-(1,1-Dioxidothiomorpholin-4-yl)pyrazin-2-yl][(3R)-3-methyl-1,4′-bipiperidin-1′-yl]methanone]	7.15	–
COC[C@@]1(C)CCCN2CCc3c(oc4ccccc34)[C@@H]21 [ORM-12741, reference compound]	–	factor by which microcirculation is improved at MED compared to placebo [2]: 1.9 ×; MED skin temperature [2]: 0.01 mg/kg; MED microcirculation [2]: 0.1 mg/kg
CCC(CO)Nc1ccc(C(=O)N2CCC(N3CCC[C@@H](C)C3)CC2)cn1 (stereo partly drawn) [Example 11, {6[(1-Hydroxybutan-2-yl)amino]pyridin-3-yl}[(3R)-3-methyl-1,4′-bipiperidin-1′-yl]methanone]	7.21	factor by which microcirculation is improved at MED compared to placebo [2]: 2.4 ×; MED skin temperature [2]: 1 mg/kg; MED microcirculation [2]: 1 mg/kg
C[C@@H]1CCCN(C2CCN(C(=O)c3ccc(N4CCS(=O)(=O)CC4)nc3)CC2)C1 [Example 9, [6-(1,1-Dioxidothiomorpholin-4-yl)pyridin-3-yl][(3R)-3-methyl-1,4′-bipiperidin-1′-yl]methanone]	7.57	–
COC[C@H]1CCCN1c1ncc(C(=O)N2CCC(N3CCC[C@@H](C)C3)CC2)cn1 [Example 20, {2-[(2R)-2-(Methoxymethyl)pyrrolidin-1-yl]pyrimidin-5-yl}[(3R)-3-methyl-1,4′-bipiperidin-1′-yl]methanone]	7.39	–

The next lines start with results.

pIC50 [1]	Compound	also measured
7.72	C[C@@H]1CCCN(C2CCN(C(=O)c3cnc(N4CCC(F)(F)CC4)nc3)CC2)C1 [Example 19, [2-(4,4-Difluoropiperidin-1-yl)pyrimidin-5-yl][(3R)-3-methyl-1,4′-bipiperidin-1′-yl]methanone]	–
7.57	CC1CCCN(c2ccc(C(=O)N3CCC(N4CCC[C@@H](C)C4)CC3)cn2)C1 (stereo partly drawn) [Example 15, [(3R)-3-Methyl-1,4′-bipiperidin-1′-yl][6-(3-methylpiperidin-1-yl)pyridin-3-yl]methanone]	–
7.96	COC[C@H]1CCCN1c1ccc(C(=O)N2CCC(N3CCC[C@@H](C)C3)CC2)cn1 [Example 3, {6-[(2R)-2-(Methoxymethyl)pyrrolidin-1-yl]pyridin-3-yl}[(3R)-3-methyl-1,4′-bipiperidin-1′-yl]methanone formic acid salt]	–
7.92	COC1CCN(c2ccc(C(=O)N3CCC(N4CCC[C@@H](C)C4)CC3)cn2)C1 (stereo partly drawn) [Example 13, [6-(3-Methoxypyrrolidin-1-yl)pyridin-3-yl][(3R)-3-methyl-1,4′-bipiperidin-1′-yl]methanone]	–
7.68	CCC(COC(N)=O)Nc1ccc(C(=O)N2CCC(N3CCC[C@@H](C)C3)CC2)cn1 (stereo partly drawn) [Example 12, 2-[(5-{[(3R)-3-Methyl-1,4′-bipiperidin-1′-yl]carbonyl}pyridin-2-yl)amino]butyl carbamate]	–
7.85	O=C(c1cnc(N2CCOCC2)nc1)N1CCC(N2CCCC(OCC3CC3)C2)CC1 (stereo not drawn) [Example 17, [3-(Cyclopropylmethoxy)-1,4′-bipiperidin-1′-yl][2-(morpholin-4-yl)pyrimidin-5-yl]methanone]	–
7.74	C[C@@H]1CCCN(C2CCN(C(=O)c3ccc(N4CCC(F)(F)CC4)nc3)CC2)C1 [Example 5, [6-(4,4-Difluoropiperidin-1-yl)pyridin-3-yl][(3R)-3-methyl-1,4′-bipiperidin-1′-yl]methanone]	–
7.74	CC[C@@H](CO)Nc1ccc(C(=O)N2CCC(N3CCC[C@@H](C)C3)CC2)cn1 [Example 10, (6-{[(2 S)-1-Hydroxybutan-2-yl]amino}pyridin-3-yl)[(3R)-3-methyl-1,4′-bipiperidin-1′-yl]methanone]	–
7.62	C[C@@H]1CCCN(C2CCN(C(=O)c3cnc(N4CC5(COC5)C4)nc3)CC2)C1 [Example 18, [(3R)-3-Methyl-1,4′-bipiperidin-1′-yl][2-(2-oxa-6-azaspiro[3.3]hept-6-yl)pyrimidin-5-yl]methanone]	–
7.89	O=C(c1ccc(N2CCOCC2)nc1)N1CCC(N2CCCC(OCC3CC3)C2)CC1 (stereo not drawn) [Example 7, [3-(Cyclopropylmethoxy)-1,4′-bipiperidin-1′-yl][6-(morpholin-4-yl)pyridin-3-yl]methanone]	–
8.35	C[C@@H]1CCCN(C2CCN(C(=O)c3ccc(N(C)Cc4c(F)cccc4F)nc3)CC2)C1 [Example 8, {6-[(2,6-Difluorobenzyl)(methyl)amino]pyridin-3-yl}[(3R)-3-methyl-1,4′-bipiperidin-1′-yl]methanone]	–
7.80	CCC(COC)Nc1ccc(C(=O)N2CCC(N3CCC[C@@H](C)C3)CC2)cn1 (stereo partly drawn) [Example 14, {6-[(1-Methoxybutan-2-yl)amino]pyridin-3-yl}[(3R)-3-methyl-1,4′-bipiperidin-1′-yl]methanone]	–
